Laboratory results from paper PMC9545147, “Impact of Sulfur Fumigation on Ginger: Chemical and Biological Evidence” (Journal of Agricultural and Food Chemistry, 2022).

Columns and labels:
[1] = MTT cell viability assay, HCT-116; assay type: cell-based, human; details: human, HCT-116 colon cancer cells; for viability at 24 h, 100 µM: HCT-116, 100 μM
Protocol: (§1) HCT-116 colon cancer cells (Procell, Wuhan, China) were cultured in McCoy’s 5A medium (Gibco; Thermo Fisher Scientific Inc., MA, USA), Hep-G2 hepatocellular carcinoma cells (Procell, Wuhan, China) in Eagle’s minimum essential medium (EMEM, Gibco; Thermo Fisher Scientific Inc., MA, USA), and HCC-1806 breast cancer cells (Manassas, VA, USA) in RPMI-1640 medium (Gibco; Thermo Fisher Scientific Inc., MA, USA). All the mediums were supplemented with 10% fetal bovine serum and 1% penicillin–streptomycin (Thermo Fisher Scientific Inc., MA, USA) and cultured at 37 °C in a humidified incubator with 5% CO2.
(§2) Cell viability was determined by a 3-(4,5-dimethylthiazol-2-yl)-2,5-diphenyltetrazolium bromide (MTT) colorimetric assay. Each cell strain (6000 cells/well) was plated in 96-well microtiter plates and allowed to attach for 24 h at 37 °C and 5% CO2. Compound I or 6-shogaol (in dimethyl sulfoxide, DMSO) was added to the cell culture medium to desired final concentrations of 10, 40, and 100 μM. Final DMSO concentrations for control and treatments were 0.1%. There were six replicates of each condition. After the cells were cultured for 24 h, the medium was removed, and the cells were treated with 5 mg/mL MTT in fresh media. After incubation for 4 h at 37 °C, the medium containing MTT was removed, 100 μL of DMSO was added to the wells, and the plates were shaken gently for 30 min at room temperature. Absorbance values were derived from the plate reading at 490 nm on microplate readers (BioTek, Agilent).

[2] = tested on: HCT-116 colon cancer cells; assay: MTT cell viability assay, HCT-116; assay type: cell-based, human; details: HCT-116, 10 μM, 24 h
Protocol: as §1, §2

[3] = MTT cell viability assay, Hep-G2; assay type: cell-based; details: human, Hep-G2 hepatocellular carcinoma cells, Hep-G2, 100 μM
Protocol: as §1
as §2, with “After incubation for 4 h at 37 °C, the medium containing MTT was removed, 100 μL of DMSO was added to the wells, and the plates were shaken gently for 30 min at room temperature.” left out

[4] = Stability evaluation of samples in rat plasma (UPLC–QQQ–MS/MS method validation); assay type: in vitro ADME; details: n=3; for Stability (Mean±SD), Postpreparative: rat plasma samples in autosampler for 8 h; for Stability (Mean±SD), Short Term / Stability (Mean±SD), Freeze and Thaw / Stability (Mean±SD), Long Term: rat plasma; for Stability (Mean±SD), Short Term: room temperature for 4 h; for Stability (Mean±SD), Freeze and Thaw: −20 °C for 24 h and thawed at room temperature, repeated three times; for Stability (Mean±SD), Long Term: −20 °C for 30 days
Protocol: The established UPLC–QQQ–MS/MS methods were validated according to the guidelines of the US Food and Drug Administration.[10] Linearity, limit of detection (LOD), lower limit of quantification (LLOQ), interday and intraday accuracy and precision, extraction recovery, and stability were measured. The calibration curve was replicated three times on the same day (intraday) and over 3 days (interday) to evaluate accuracy and precision. The correlation coefficient (r^2) of all calibration curves was at least 0.995, and the bias and coefficient of variation were kept within ±15%. Matrix effect and recovery evaluation: the matrix effect was given as the ratio of mean peak area for the post-extraction spiked samples (set 2, in plasma) to that of the standard solution samples (set 1, in MeOH). Recovery was quantified as the ratio of mean peak area of the pre-extraction spiked samples (set 3, standard with homogenate plasma) to that of the post-extraction spiked samples (set 2, in plasma). Stability: (1) freeze and thaw: samples were stored at −20 °C for 24 h and thawed at room temperature and repeated three times; (2) short term: samples were maintained at room temperature for 4 h; (3) long term: samples were kept at −20 °C for 30 days; (4) postpreparative: samples were maintained in an autosampler for 8 h. The stability of all the samples was limited to within ±15%, except for the LLOQ within ±20%.

[5] = Pharmacokinetics in rats after single oral (intragastric) administration; assay type: in vivo; details: male, Sprague-Dawley, rat, 10 mg/kg, plasma, mean ± SD (n = 6); for CL/F: read-out: Cl/F_obs (apparent total body clearance) (converted); for MRT: read-out: MRT (mean residence time); for half-life: read-out: T1/2 (terminal half-life) (converted); for Vd/F: read-out: Vz/F_obs (apparent volume of distribution)
Protocol: A multiple reaction monitoring (MRM) mass acquisition method using a triple quadrupole (QQQ) mass spectrometer was used to determine compound I and 6-shogaol in rat plasma. Chromatographic separation was performed on an Agilent 1290 UPLC equipped with a binary pump with degasser (G4220A), a thermostatic column compartment (G1316C), and an autosampler (G4226A). […] The mobile phase used for the UPLC consisted of 0.1% formic acid in water (v/v) (A) and 0.1% formic acid in acetonitrile (v/v) (B). The elution gradient procedure started at 15% B, then 0–5 min, 15–75% B; 5–6 min, 75–100% B; 6–9 min, 100% B; 9–12 min, 15% B.
MS data were acquired with an Agilent 6460 QQQ mass spectrometer (G6460) equipped with a JetStream electrospray ion (ESI) source. The MRM parameters were as follows: for 6-gingesulfonic acid, negative mode; fragmentor at 120 V; ion pair m/z 357.1 → 80.9 (15 V), 357.1 → 275.1 (15 V). For 6-shogaol, positive mode; fragmentor at 80 V; ion pair m/z 277.2 → 137.0 (11 V), 277.2 → 259.1 (7 V).
The pharmacokinetic parameters were calculated using the PKSolver 2.0 add-in with a non-compartment model.[11],[12] The time to peak drug concentration (Tmax) means the time when plasma concentrations reached a maximum value (Cmax). The area under the concentration versus time curve from zero to the last sampling time (AUC0–t) and to infinity (AUC0–∞), apparent volume of distribution (Vz/F_obs), terminal half-life (T1/2), mean residence time (MRT), and apparent total body clearance (Cl/F_obs), were calculated under the PKSolver add-in. All the results were presented as the mean ± standard deviation (SD) of six independent experiments.

[6] = MTT cell viability assay, HCC-1806; assay type: cell-based; details: human, HCC-1806 breast cancer cells, HCC-1806, 100 μM
Protocol: as §1
as §2, with “After incubation for 4 h at 37 °C, the medium containing MTT was removed, 100 μL of DMSO was added to the wells, and the plates were shaken gently for 30 min at room temperature.” left out

[7] = Metabolite profiling in rat plasma, urine and feces by UPLC–QTOF–MS/MS; details: rats; for biological samples in which metabolite was detected, 6-Shogaol treated: 10 mg/kg oral 6-shogaol, feces/urine/plasma
Protocol: A total of 12 adult male Sprague–Dawley rats (220–240 g) were purchased from the Chinese University of Hong Kong. The animals were kept in standard living conditions (room temperature 22 ± 1 °C, 12 h light/dark normal cycle, and constant humidity) at the animal laboratory of the School of Chinese Medicine, Hong Kong Baptist University with free access to food and water. All experimental protocols were approved by the Environmental Health and Safety Committee of Hong Kong Baptist University, Hong Kong (03/2017), and the procedures were in accordance with the guidelines of the Animal Care Ethics Committee of Hong Kong Baptist University and the Department of Health, Hong Kong Special Administrative Region. Before the experiment, the rats were kept for one week to acclimate to the new environment. The rats were randomly divided into two groups (n = 6) and fasted with water freely available. On the day of the experiment, by intragastric administration, one group received compound I and the other group received 6-shogaol. Both compounds were dissolved in 2% Tween 80 with an administration volume of less than 0.5 mL at a dose of 10 mg/kg. Then, rats were housed singly during the blood collection period (a total of 72 h). For each sample, 300–500 μL blood was collected from the eye canthus of each rat into tubes containing 1.5 mL EDTA. Samples were drawn at 0.0, 0.08, 0.25, 0.50, 0.75, 1.0, 2.0, 4.0, 6.0, 12, 24, 36, 48, 60, and 72 h. The blood samples were centrifuged at 4000 rpm for 15 min at 4 °C to obtain plasma. Urine and feces were collected every 1–2 h throughout the experiments. The blood, urine, and feces were collected before the intragastric administration as a blank sample. The rats were sacrificed by cervical spondylolisthesis after the experiment.
For metabolite identification and relative quantification, homogeneous biospecimen samples were combined during periods from 0 h to the time when plasmatic concentrations reached a maximum value (Tmax) after intragastric administration. 50 μL of each plasma or urine sample was added to 1.2 mL of MeOH to precipitate proteins. […]

In the case of CCCCCC(CC(=O)CCc1ccc(O)c(OC)c1)S(=O)(=O)O (centres unmarked) [6-gingesulfonic acid], the viability at 24 h, 100 µM [1] is reported as 84.9%, the cell viability [2] is reported as “no significant change” and the viability at 24 h, 100 µM [3] is reported as 84.2%. For the same compound, the “Stability (Mean±SD), Postpreparative” value [4] was 98.19±5.06%, the “Stability (Mean±SD), Short Term” value [4] was 99.26±1.58% and the “Stability (Mean±SD), Freeze and Thaw” value [4] was 92.6±4.31%. The “Stability (Mean±SD), Long Term” value [4] was 92.26±4.28%, the AUC(0-inf) [5] was 9580 ± 2070 ng·h/mL and the AUC(0-t) [5] was 8710 ± 1930 ng·h/mL. The Cmax [5] was 520 ± 138 ng/mL, the Tmax [5] was 5.33 ± 1.63 h and the CL/F [5] was 18 mL/min/kg. The MRT [5] was 30.4 ± 1.83 h, the half-life [5] was 20.8 ± 5.23 h and the Vd/F [5] was 32.4 ± 9.94 L/kg. For the same compound, the viability at 24 h, 100 µM [6] was 64.6%.
Work on CCCCC/C=C/C(=O)CCc1ccc(O)c(OC)c1 [6-shogaol, reference compound] yielded a viability at 24 h, 10 µM ([1]; HCT-116, 10 μM) of 58.6%, a viability at 24 h, 100 µM [1] of 4.17% and a viability at 24 h, 100 µM [3] of 2.73%. The “Stability (Mean±SD), Postpreparative” value [4] was 95.87±8.69%, the “Stability (Mean±SD), Short Term” value [4] was 95.88±8.18% and the “Stability (Mean±SD), Freeze and Thaw” value [4] was 96.06±9.07%. The “Stability (Mean±SD), Long Term” value [4] was 101.23±12.95%, the AUC(0-inf) [5] was 121 ± 36.3 ng·h/mL and the AUC(0-t) [5] was 76.8 ± 26.9 ng·h/mL. It also gave a Cmax [5] of 155 ± 39 ng/mL, a Tmax [5] of 0.14 ± 0.09 h and a CL/F [5] of 1470 mL/min/kg. The MRT [5] was 1.02 ± 0.82 h, the half-life [5] was 0.64 ± 0.53 h and the Vd/F [5] was 71.9 ± 33 L/kg. For the same compound, the viability at 24 h, 100 µM [6] was 7.84%.
With CCCCCC=CC(O)CCc1ccc(O)c(OC)c1 (centres unmarked) [M1, 1-(4′-hydroxy-3′-methoxyphenyl)-4-decen-3-ol] the “biological samples in which metabolite was detected, 6-Shogaol treated” value [7] was “FUP”.
For CCCCC/C=C/C(=O)CCc1ccc(OC2OC(C(=O)O)C(O)C(O)C2O)c(OC)c1 (stereo not drawn) [M3, s-6-shogaol-4′-O-β-glucuronide], the “biological samples in which metabolite was detected, 6-Shogaol treated” value [7] was “FUP”.
For CCCCCC(CC(=O)CCc1ccc(O)c(OC)c1)SCC(NC(=O)CCC(N)C(=O)O)C(=O)NCC(=O)O (centres unmarked) [M4, 5-glutathionyl-6-shogaol], the “metabolite concentration in urine and feces samples of 6-gingesulfonic acid group versus 6-shogaol group” value ([7]; 10 mg/kg oral) was “lower concentrations”.
